From BindingDB's records for doi:10.7270/Q2F769WQ (University of Pittsburgh, 2007)

Molecular target: T1, Dual specificity protein phosphatase 1 (Homo sapiens, UniProt P28562)
T1 sequence (P28562 whole entry): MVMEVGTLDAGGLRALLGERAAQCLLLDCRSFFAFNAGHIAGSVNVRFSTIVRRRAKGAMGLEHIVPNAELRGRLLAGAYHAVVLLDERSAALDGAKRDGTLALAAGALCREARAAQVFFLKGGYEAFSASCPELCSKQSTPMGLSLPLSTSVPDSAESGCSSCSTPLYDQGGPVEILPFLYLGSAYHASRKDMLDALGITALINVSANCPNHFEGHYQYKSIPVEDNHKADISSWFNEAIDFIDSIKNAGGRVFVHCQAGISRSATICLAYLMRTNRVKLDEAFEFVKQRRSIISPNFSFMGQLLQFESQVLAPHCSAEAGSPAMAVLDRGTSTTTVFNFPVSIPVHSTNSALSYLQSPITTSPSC
Assay: concentration-response of DUSP1 blockers – biochemical, in vitro, confirmation, dose response (AID 551)
Settings: pH 7; 22 °C

Row | IC50 | Structure (SMILES)
1 | 7.66 µM | O=C(OC1CCCCC1)c1ccc2c(c1)C1C=CCC1C(C(=O)O)N2 (stereo not given) [SMR000019385]
2 | > 50 µM | CC12CC(NC(=O)N1c1ccc(C(=O)N3CCN(c4ccc(F)cc4)CC3)cc1)c1ccccc1O2 (stereo not given) [SMR000026617]
3 | 23.5 µM | CCCCn1c(NC(=O)c2ccccc2)c(C#N)c2nc3ccccc3nc21 [SMR000060333]
4 | 0.136 µM | N#Cc1c(N2CCCC2)nc(N)c2c(N)nc(N3CCCC3)cc12 [SMR000061605]
5 | > 50 µM | CCOC(=O)c1ccc(Nc2c3[nH]cccc-3c(=O)n2Cc2ccc(F)cc2)cc1 [ethyl 4-[[6-[(4-fluorophenyl)methyl]-5-oxo-7H-pyrrolo[3,4-b]pyridin-7-yl]amino]benzoate]
